In paper PMC5766510, “Development of a PET radioligand for potassium channels to image CNS demyelination” (Scientific Reports, 2018):
Where two headings read alike, the source gives them in different places.

Legend:
[1] = in vitro; conditions: mouse
[2] = Parallel artificial membrane permeability assay (PAMPA); conditions: for Papp: PAMPA
[3] = estimated; cited from earlier work
[4] = mouse, 1 h
[5] = system: K^+ channels in explanted mouse optic nerves; test: Compound action potential (CAP) of dissected mouse optic nerves; conditions: for EC50: increase of maximum CAP amplitude, dysmyelinated (Shiverer) optic nerves, 22.2 °C, read-out: Half-maximal effective concentration (EC50)
Experimental: Therefore, we tested the effects of these compounds on the compound action potential (CAP) of dysmyelinated optic nerves from control and Shiverer mice (Fig. 2E).
Optic nerves were dissected from 12–16 week old Shiverer (Mbp^shi/shi) and control mice (Mbp^+/shi and Mbp^+/+). Compound action potentials (CAP) were recorded using suction electrodes as described by Stys et al.[91]. See SI for additional details.
(§1) CI95 = [Upper Limit. Lower Limit]; where Upper Limit = 10^(logEC50+s.d.) and Lower Limit = 10^(logEC50−s.d.). […]
Dissection of optic nerves: Optic nerves were dissected from 12-16 week old Shiverer (Mbpshi/shi) and control mice (Mbp+/shi and Mbp+/+). Mice were euthanized by CO2 overdose and the optic nerves were quickly dissected between the eyeball and the optic chiasm. The nerves […]
Optic nerve electrophysiology: Compound action potentials (CAP) from dysmyelinated nerves (Shiverer mice, Mbpshi/shi) and myelinated nerves (litermate controls, Mbp+/shi and Mbp+/+) were […]
between two suction electrodes (stimulus and recording electrodes) forming a tight seal on each end. Two additional electrodes were placed in the bath for reference. A supramaximal pulse (250 mV, 20 μs) was applied at the stimulating end of the nerve. The resulting CAP was amplified from the recording electrode using a high impedance low-noise amplifier (EG&G Princeton Applied Research Corporation) sampled at 100 kHz and filtered at 10 kHz. To assess […]
concentrations to the recording chamber after the CAP was allowed to stabilize for 5 min while […]
pulsing repeatedly. After each measurement, the chamber was washed for 5 min (flow 1 […]
mL/min) with oxygenated aCSF. […]
conduction and the temperature was monitored throughout the experiment. CAP recordings were acquired with a SBC6711 board (Innovative Integration) controlled by in-house written software. Analysis of the traces was done using an in-house software. The half-maximal […]
amplitude vs. concentration and fitted to the Hill equation using Origin. […]
Compound action potential of nerve recorded by suction electrode: a theoretical and experimental analysis. […]

[6] = Partition coefficient octanol-water (logD); type: physicochemical
Experimental: The partition coefficient octanol-water at pH 7.4 was measured by adding 0.1 mg of the compound to a 10 mL 50:50 mixture of octanol:PBS. The vial was shaken vigorously followed by 1 min centrifugation at 1,000 g to separate the phases. The drug concentration in each phase of the drug was calculated from the area under the peak on reverse phase HPLC (10 μL sample) using a calibration curve.

[7] = system: C57Bl/6 J mice; test: In vivo effects (signs of neuroexcitation) after intraperitoneal injection; conditions: mouse, different doses
Experimental: In this experiment, we injected each drug intraperitoneally at different concentrations into mice and looked for signs of neuroexcitation (Fig. 3B).
10-week-old female C57Bl/6 J mice were given an intraperitoneal injection of the drug under investigation and monitored continuously for 4 h. […] At least 72 h passed between injections to the same mice.

[8] = biological target: non-inactivating Shaker channel from D. melanogaster (Drosophila melanogaster, UniProt P08510, DEL6-46); test: cell-based; conditions: relative K^+ current at +20 mV, Hill equation fit; read-out: Half-maximal inhibitory concentration (IC50)
Experimental: See SI for additional details.
as §1
exchanging the external solution (top and guard chambers) several times. After application, cells were voltage-clamped at least 5 min at 0mV, then voltage-clamped at -80mV for 1-2 min.
K+ currents were generated by applying series of 50 ms pulses from -70 mV to +40 mV in increments of 10 mV. The effect of the drug was assessed by measuring the relative intensity of the K+ current before and after applying varying drug concentration at a constant voltage (typically +20 mV) and at the end of the test-pulse. Data acquisition and analysis of the traces was performed using Gpatch software (Department of Anesthesiology, University of California, […]
Los Angeles). […]

[9] = system: voltage-gated K^+ channels; test: PET imaging in healthy Rhesus macaques; type: in vivo, Rhesus monkeys (macaca mulatta)
Experimental: Whole body PET/CT imaging was carried out on a Siemens mCT PET/CT. Monkeys were sedated with ketamine and intubated. Following intubation monkeys were placed in prone position on the scanner bed face forward with their head immobilized in a stereotaxic frame. The animals were then anesthetized with 1% isoflurane and kept under anesthesia throughout the whole procedure. A CT image was acquired first (approx. 5 min). After the CT, 5 mCi in 8 mL of saline of [^18F]3-F-4-AP was infused as a bolus through the cubital vein. Scans were obtained in list mode and reconstructed with a 3D ordinary Poisson OSEM algorithm as 30 frames of data (2 × 15 secs, 4 × 30 secs, 8 × 60 secs, 8 × 120 secs, 8 × 240 secs). All activities were decay-corrected to the time of injection of the radiopharmaceutical. Reconstructed images were processed using VivoQuant. ROIs for the major organs were hand drawn based on the CT and used to calculate time-activity curves.
Focused high-resolution brain imaging in Rhesus macaques: brain PET imaging was carried out on a Siemens HRRT PET scanner. Monkeys were sedated with ketamine and intubated. Following intubation monkeys were placed in prone position on the scanner bed face forward with their head immobilized in a stereotaxic frame. The animals were then anesthetized with 1% isoflurane and kept under anesthesia throughout the whole procedure. Monkeys received 5 mCi of [^18F]3-F-4-AP as a bolus through the cubital vein. Scans were obtained in list mode and reconstructed with a 3D ordinary Poisson OSEM algorithm as […] frames of data (8 × 15 secs, 8 × 30 secs, 16 × 60 secs, 16 × 120 secs, 16 × 240 secs). All activities were decay-corrected to the time of injection of the radiopharmaceutical. Reconstructed images were processed using VivoQuant. The Rhesus brain atlas from VivoQuant was fitted to the data and used to calculate time-activity curves for 43 different brain regions.

[10] = Stability in mouse plasma; conditions: after 1 h
[11] = system: voltage-gated K^+ channels; test: PET/CT imaging in healthy rats; type: in vivo, rat
Excerpt: In order to evaluate the potential use of [^18F]3-F-4-AP as a PET tracer for the brain, we conducted PET combined with computed tomography (PET/CT) imaging in healthy rats after tail vein injection of [^18F]3-F-4-AP (0.15–0.30 μCi/g). We chose rats instead of mice because their larger brain size allows better spatial resolution. […] In order to overcome the limited intrinsic resolution of PET, we conducted ex vivo autoradiography in rats injected with [^18F]3-F-4-AP (1–2 μCi/g).
PET/CT imaging studies were carried out on a Trifoil Triumph™ Trimodality Preclinical microPET/SPECT/CT Imaging System (Norridge, CA) equipped with a X-PET detector constructed from BGO crystals. Rats were anesthetized with a mixture of 2% isoflurane and […] and kept under anesthesia throughout the whole procedure. A CT image was acquired first (at 40 kV, 140-uA beam current, and 256 projections, approx. 5 min). After the CT, 50–150 µCi of [^18F]3-F-4-AP was infused as a bolus through a tail vein injection port and a 25, 30 or 90 min list-mode PET scan performed. PET data are acquired using a sensitivity 5.9%, 250- to 750-keV energy window and 12-ns timing window in list-mode format with spatial resolution of 1.6–2.0 mm (FWHM), which can be binned into 3-dimensional (3D) sinograms corresponding to total and true events, respectively. Images were reconstructed using Fourier rebinning followed by a 2-dimensional ordered-subsets expectation maximization algorithm (OSEM) (4 iterations with 15 subsets). Reconstructed images were processed by using VivoQuant (inviCRO, LLC, Boston) version 2.1. Time activity curves were generated by processing the PET data in 5 min frames.

[12] = system: voltage-gated K^+ channels; test: Detection of demyelination by PET in LPC-injected rats; type: in vivo, rat; conditions: PET 0-25 min
Experimental: After conducting PET imaging with [^18F]3-F-4-AP in healthy rats, we sought to evaluate the capability of this tracer to detect demyelination using the LPC-injection model. The main advantages of this model are that the localization of the lesion is known, that the time course of demyelination is well established, that there is no inflammation or disruption of the BBB, and that the signal in the lesioned area can be directly compared to the contralateral control area[69]. […] Rats were injected with 3 μL of saline (control group) or 1% LPC in saline (demyelination group) on the right side of the cerebellum, targeting the cerebellar white matter. Seven days post injection, which corresponds to the peak of demyelination, the animals were scanned using PET (0–25 min). Several hours after the PET scan, the animals were reinjected with [^18F]3F4AP and their brains studied by ex vivo autoradiography as previously described. Finally, following autoradiography the same tissue sections were stained with LFB. To analyze the data, we placed a spherical voxel of ~1.5 mm radius centered at the injection coordinates and compared the signal in this region with that of an equal size region at the contralateral hemisphere (Fig. 6A). […] Furthermore, there was excellent correlation between PET, ex vivo autoradiography and histological staining for myelin (Fig. 6C). For one animal, we performed serial autoradiography and staining throughout the whole cerebellum (Sup. Fig. 2). As shown in this figure, it is possible to clearly delineate where the lesion starts and finishes based on the autoradiographic signal.
A power analysis (power 0.8, α = 0.05) based on the autoradiography results was used to determine the number of rats needed to detect a statistically significant change in signal. Randomly selected rats were injected with lysolecithin or saline intracranially as described above. 0–25 min dynamic PET scan was performed 6–8 days post intracranial injection (peak of demyelination) after administration of 0.3–0.5 μCi/g. Within 24 h of the PET scan, the rats received a second dose of tracer (1–2 uCi/g), the animals were sacrificed 25 min post injection and their brains processed for autoradiography as described above. Image analyst was not blind to the treatment group. Post autoradiography, LFB staining was performed to assess demyelination. Animals showing physical damage to the brain due to the injection were excluded from the study. Brain ROI analysis was performed using reference atlas with VivoQuant version 2.1 (inviCRO, LLC, Boston).

[13] = Organ distribution of PET tracer in mice by gamma counting; type: in vivo; conditions: mouse, 30 min post intravenous injection, n = 4
Experimental: Once we had generated the ^18F-labeled drug, we evaluated the uptake of the tracer in mouse blood, brain, liver and kidneys 30 min and 2 h post intravenous administration using automatic gamma counting. […] The uptake in the brain 30 min post injection was higher than blood (standard uptake value (SUV) = 4.71 ± 0.81 vs. 3.27 ± 0.35, n = 4, P = 0.024) providing a suitable time window to conduct PET imaging studies.
50–60 uCi of the [^18F]3-F-4-AP tracer was injected via tail vein to eight 8-week-old female B6 albino mice. At the specified times, the mice were euthanized by anesthetic overdose. Following euthanasia blood was collected by cardiac puncture and transferred to EDTA coated tubes. Other organs (brain, liver and kidneys) were collected by dissection and transferred to glass tubes. Radioactivity was measured using an automatic gamma counter (^18F protocol) and corrected for organ weight and injected dose. Using the original tracer solution, 8 standard solutions ranging from 20 μCi to 10^−5 μCi were prepared, analyzed by gamma counting and used as a calibration curve to correlate peak area of the samples to concentration. SUV was calculated as SUV = (dose organ/organ weight)/(dose injected/body weight) with dose corrected for decay.

[14] = LPC-injected rats, 7 days post injection, n = 4
[15] = saline (vehicle only)-injected rats, n = 3

Chain of non-inactivating Shaker channel from D. melanogaster (P08510 other isoform, or with tags, fused parts or gaps DEL6-46): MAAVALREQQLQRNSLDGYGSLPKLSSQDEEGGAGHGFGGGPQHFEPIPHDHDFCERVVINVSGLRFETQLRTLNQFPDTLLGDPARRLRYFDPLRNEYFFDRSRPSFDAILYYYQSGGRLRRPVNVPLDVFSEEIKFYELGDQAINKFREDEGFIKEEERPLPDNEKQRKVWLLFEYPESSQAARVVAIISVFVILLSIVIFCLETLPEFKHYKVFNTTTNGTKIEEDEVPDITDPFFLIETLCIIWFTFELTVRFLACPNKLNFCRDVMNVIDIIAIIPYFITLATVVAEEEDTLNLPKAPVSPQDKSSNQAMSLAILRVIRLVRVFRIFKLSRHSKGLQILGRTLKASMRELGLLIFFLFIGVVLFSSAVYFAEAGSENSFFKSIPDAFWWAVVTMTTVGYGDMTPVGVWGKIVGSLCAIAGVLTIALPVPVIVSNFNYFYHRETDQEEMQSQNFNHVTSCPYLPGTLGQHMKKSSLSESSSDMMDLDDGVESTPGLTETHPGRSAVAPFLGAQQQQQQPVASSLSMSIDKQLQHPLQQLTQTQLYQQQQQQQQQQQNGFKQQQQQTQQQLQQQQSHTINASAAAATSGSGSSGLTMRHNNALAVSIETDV

SMILES: Nc1ccncc1 [4-AP, 4-aminopyridine]
- half-life ([1]; liver microsomes): 0.883 ± 0.167 h
- Papp [2]: 0.236 ± 0.003 ×10⁻⁶ cm/s
- concentration in the cerebrospinal fluid of patients taking the drug [3]: around 50 nM
- remaining in plasma [4]: > 90%
- increases of the CAP amplitude ([5]; dysmyelinated nerves): 2–4 fold
- EC50 [5]: 59.2 µM
- increases in amplitude and duration of the action potential ([5]; normally myelinated nerves): < 5%
- logD: experimental partition coefficient octanol:water ([6]; pH 7.4): 0.21
- logD ([6]; pH 7.4, logD: experimental partition coefficient octanol:water): 0.23

SMILES: Nc1ccncc1F [3-F-4-AP, 3-fluoro-4-aminopyridine]
- half-life ([1]; microsomes): 2.4 ± 0.183 h
- signs of neuroexcitation, summary in words relative to 4-AP [7]: active at the same concentration as 4-AP and to act faster
- IC50 [8]: 250 µM
- Papp [2]: 1.56 ± 0.06 ×10⁻⁶ cm/s
- times more permeable than 4-AP ([2]; ratio of Pe): 6.6 times
- effect of cold drug (self-block) on brain signal ([9]; Rhesus macaques, 0.1 mg/kg): no changes in brain signal or time activity curves were detected
- estimated seizure dose in monkeys ([9]; estimated based on the rodent data): 1.5 to 3.0 mg/kg
- remaining in plasma [10]: > 90%
- EC50 [5]: 96 µM
- logD ([6]; pH 7.4, pH 7.4, n = 3, read-out: logD: experimental partition coefficient octanol:water): 0.63
- effect of high doses of non-radiolabeled drug (self-block) ([11]; rats): caused the breathing rate to increase dramatically, possibly due to seizures

SMILES: Nc1ccncc1[18F] [[^18F]3-F-4-AP]
- SUV, control side of cerebellum [12, 14]: 2.60 ± 0.21
- SUV, injected side of cerebellum [12, 14]: 3.54 ± 0.53
- SUV, control side of cerebellum [12, 15]: 2.67 ± 0.77
- SUV, injected side of cerebellum [12, 15]: 2.59 ± 0.78
- peak SUV in selected brain regions ([9]; Rhesus macaques): 3.2–5.5
- time of peak SUV in selected brain regions ([9]; Rhesus macaques): 2 to 5 min
- peak SUV for the whole brain ([9]; Rhesus macaques, within the first five minutes): around 4
- defluorination in vivo ([9]; Rhesus macaques, lack of bone uptake): not defluorinated in vivo
- standard uptake value (SUV) in blood [13]: 3.27 ± 0.35
- standard uptake value (SUV) in brain [13]: 4.71 ± 0.81
- time of peak in brain time-activity curve ([11]; healthy rats, 0-90 min scan): ≤ 5 min
- SUV in cerebellum ([11]; healthy rats, 0 to 30 min): 2.09 ± 0.44
- SUV in cortex ([11]; healthy rats, 0 to 30 min): 3.24 ± 0.70
- mean SUV for the whole brain ([11]; healthy rats, 0 to 30 min, n = 3): 2.91 ± 0.65
- defluorination in vivo ([11]; rats, no radioactivity in skull, teeth or bone): does not undergo defluorination in vivo
